Article PMC12006171, “Marsupial cathelicidins: characterization, antimicrobial activity and evolution in this unique mammalian lineage” (Frontiers in Immunology, 2025)
≈ marks a conversion by molar mass, not a printed value. Read-outs that look alike come from different tables or passages of the source. Where a SMILES comes first, the peptide text is derived from it.

Assays:
Format in all cases: cell-based
[1] = tested on: Staphylococcus aureus clinical isolate – animal, methicillin-resistant (MRSA); settings: clinical isolate – animal, methicillin-resistant
Description: (§1) Antimicrobial testing of 78 cathelicidin MPs was performed in two phases as outlined in Figure 1 . In phase I, 40 peptides (27 extant and 13 ancestral) were selected for testing based on rank (outlined above) and similarity to published marsupial cathelicidins with known antimicrobial activity ([33], [41]–[43]). These peptides were tested against nine bacteria (Staphylococcus aureus ATCC 29213 and clinical isolate, Escherichia coli ATCC 25922 and clinical isolate, Pseudomonas aeruginosa ATCC 27853 and clinical isolate, Streptococcus agalactiae ATCC 12386 and clinical isolate, Streptococcus pneumoniae ATCC 49619) and three fungi (Candida krusei ATCC 6258, Candida parapsilosis ATCC 22019, and Candida albicans clinical isolate). Details regarding these strains are available in Supplementary Table 4 . The antimicrobial activity of cathelicidins was determined as the minimum inhibitory concentration (MIC), which was the lowest concentration of cathelicidin that prevented visible bacterial or fungal growth, relative to the negative control. […] Minimum bactericidal concentration (MBC) and/or minimum fungicidal concentration (MFC) was conducted to determine microbicidal versus static action. Activity against S. aureus ATCC, E. coli ATCC, and Pseudomonas aeruginosa ATCC 27853 was examined in the presence of divalent cations to determine the impact of inhibitors.
(§2) Antimicrobial activity was determined using a broth microdilution susceptibility assay in 96 well polypropylene plates according to Clinical Laboratory Standards Institute guidelines M07-A and M26A as described previously ([33], [42], [43]). The bacterial and fungal isolates from humans and animals used in this study are outlined in Supplementary Table 4 . Only yeasts were included in the panel of fungi as they have been used in the susceptibility testing of eutherian ([3], [81]–[83]) and other marsupial cathelicidins previously ([33], [42], [43]). Cathelicidin mature peptides were solubilized in DMSO and serially diluted in duplicate from 128-0.25μg/mL in a final volume of 100µL. For bacteria, cathelicidins were diluted in Mueller Hinton Broth (MHB) with or without 10% lysed horse blood, and with (MH II B) or without (MHB) calcium and magnesium cations. For fungi, cathelicidins were diluted in Roswell Park Memorial Institute medium (RPMI)-1640 MOPS. Ampicillin or tetracycline were included as a positive control for Gram-positive and -negative bacteria respectively, while amphotericin B was used for fungi. A media-only negative control and growth control (no cathelicidin) were also included on each plate. Bacteria were sub-cultured on Muller Hinton agar (MHA) or sheep blood agar (BA), and fungi on Sabouraud dextrose agar (SAB), 20–24 hours prior to the test. Colonies were suspended in saline, the concentration adjusted to a 0.5 McFarland standard, and then diluted in media to a concentration of 1.0 x 10^6 cells/mL. Then, 100μL was added to each well of the cathelicidin dilution plate, giving a final inoculum density of 5 x 10^5 CFU/mL and cathelicidin concentration of 64-0.125μg/mL. Colony counts were performed on MHA/BA/SAB to confirm inoculum density. All plates were incubated at 35°C for 20–24 hours, depending on the strain.
(§3) Colonies were counted and compared to the colony count of the starting inoculum.

[2] = tested on: Staphylococcus aureus clinical isolate – animal, penicillin-resistant (PRSA); settings: clinical isolate – animal, penicillin-resistant (PRSA)
Description: as §1, §2, §3

[3] = tested on: Candida parapsilosis ATCC 22019; assay: microbe, parasite or virus in culture; settings: ATCC 22019
Procedure, shortened: (§4)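 MIC defined as lowest peptide level preventing visible growth after 20–24 h at 35°C. Candida tested in RPMI-1640 MOPS; bacteria in Mueller Hinton broth, optionally with 10% lysed horse blood and/or divalent cations. Final peptide range 64-0.125 μg/mL, starting inoculum 5 x 10^5 CFU/mL, per CLSI M07-A/M26A.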

[4] = tested on: Streptococcus agalactiae ATCC 12386; assay: microbe, parasite or virus in culture; settings: ATCC 12386
Procedure, shortened: as §4

[5] = tested on: Candida krusei ATCC 6258; assay: microbe, parasite or virus in culture; settings: ATCC 6258
Procedure, shortened: as §4

[6] = tested on: Streptococcus pneumoniae ATCC 49619; assay: microbe, parasite or virus in culture; settings: ATCC 49619
Procedure, shortened: as §4

[7] = tested on: Candida albicans Clinical isolate - human; assay: microbe, parasite or virus in culture; settings: Clinical isolate - human
Procedure, shortened: as §4

[8] = tested on: Streptococcus agalactiae Clinical isolate - animal; assay: microbe, parasite or virus in culture; settings: clinical isolate - animal
Procedure, shortened: as §4

[9] = tested on: Escherichia coli ATCC 25922; assay: microbe, parasite or virus in culture; settings: ATCC 25922
Procedure, shortened: (§5)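 Bacteria at a final 5 x 10^5 CFU/mL were incubated 20–24 h at 35 °C with DMSO-solubilized peptides serially diluted to 64–0.125 μg/mL in Mueller Hinton broth (± lysed horse blood, ± divalent cations). MIC read as no visible growth; bactericidal action from colony counts compared with the inoculum.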

[10] = tested on: Escherichia coli clinical isolate - animal; assay: microbe, parasite or virus in culture; settings: clinical isolate - animal
Procedure, shortened: as §5

[11] = tested on: Staphylococcus aureus ATCC 29213; assay: microbe, parasite or virus in culture; settings: ATCC 29213
Procedure, shortened: as §5

[12] = tested on: Pseudomonas aeruginosa ATCC 27853; assay: microbe, parasite or virus in culture; settings: ATCC 27853
Procedure, shortened: as §5

[13] = tested on: Pseudomonas aeruginosa clinical isolate - animal; assay: microbe, parasite or virus in culture; settings: clinical isolate - animal
Procedure, shortened: as §5

[14] = tested on: Staphylococcus aureus clinical isolate - animal; assay: microbe, parasite or virus in culture; settings: clinical isolate - animal
Procedure, shortened: as §5

[15] = read-out: MIC in the presence of cations E. coli ATCC

## CC[C@H](C)[C@H](NC(=O)[C@H](CCCNC(=N)N)NC(=O)CNC(=O)[C@H](CCCNC(=N)N)NC(=O)[C@@H](N)CCCCN)C(=O)N[C@@H](Cc1ccccc1)C(=O)N[C@@H](CCCNC(=N)N)C(=O)N[C@@H](CCCCN)C(=O)N[C@@H](Cc1ccccc1)C(=O)N[C@@H](CCCCN)C(=O)N[C@@H](CCCCN)C(=O)N[C@@H](CC(C)C)C(=O)N[C@@H](CC(C)C)C(=O)N[C@@H](CCCCN)C(=O)N[C@@H](CCCCN)C(=O)N[C@@H](CC(C)C)C(=O)NCC(=O)N[C@@H](CC(=O)O)C(=O)N[C@@H](CCCCN)C(=O)N[C@H](C(=O)N[C@@H](CCCCN)C(=O)N[C@@H](CC(N)=O)C(=O)N[C@H](C(=O)N[C@@H](CC(C)C)C(=O)N[C@@H](CCCCN)C(=O)N[C@@H](CC(N)=O)C(=O)N[C@@H](C)C(=O)N[C@@H](CCCNC(=N)N)C(=O)N[C@@H](CC(N)=O)C(=O)NCC(=O)N[C@@H](Cc1ccccc1)C(=O)N[C@@H](CC(C)C)C(=O)NCC(=O)N1CCC[C@H]1C(=O)N[C@H](C(=O)NCC(=O)N[C@@H](CCCNC(=N)N)C(=O)O)[C@@H](C)CC)[C@@H](C)O)[C@@H](C)CC [MAP8] (H-KRGRIFRKFKKLLKKLGDKIKNTLKNARNGFLGPIGR-OH)
[1]
  MBC MRSA: > 14.8 µM
  MIC MRSA: 14.8 µM (≈ 63.8 µg/mL)
[2]
  MBC PRSA: 7.4 µM (≈ 31.9 µg/mL)
  MIC PRSA: 3.7 µM (≈ 16 µg/mL)
[3]; read-out: MIC C. parapsilosis ATCC
  MIC: 7.4 µM (≈ 31.9 µg/mL)
[4]
  MBC S. agalactiae ATCC: 14.8 µM (≈ 63.8 µg/mL)
  MIC S. agalactiae ATCC: 14.8 µM (≈ 63.8 µg/mL)
[5]
  MFC C. krusei ATCC: > 64 µg/mL
[6]
  MBC S. pneumoniae ATCC: 7.4 µM (≈ 31.9 µg/mL)
  MIC S. pneumoniae ATCC: 7.4 µM (≈ 31.9 µg/mL)
[7]
  MIC C. albicans: >64 µg/mL
[8]
  MBC S. agalactiae: 7.4 µM (≈ 31.9 µg/mL)
  MIC S. agalactiae: 7.4 µM (≈ 31.9 µg/mL)
[9]
  MBC E. coli ATCC: 7.4 µM (≈ 31.9 µg/mL)
[9]; read-out: MIC E. coli ATCC
  MIC: 3.7 µM (≈ 16 µg/mL)
[9]; [15]
  MIC: 3.7 µM
[10]
  MBC E. coli: 3.7 µM (≈ 16 µg/mL)
  MIC: 3.7 µM (≈ 16 µg/mL)
  MIC in the presence of cations E. coli: 1.8 µM
[11]
  MBC S. aureus ATCC: 7.4 (7.4)^7.4 µM
  MIC S. aureus ATCC: 7.4 (7.4)^7.4 µM
  MIC in the presence of cations S. aureus ATCC: 7.4 (7.4)^7.4 µM
[12]
  MBC P. aeruginosa ATCC: 3.7 (3.7)^3.7 µM
  MIC P. aeruginosa ATCC: 3.7 (3.7)^3.7 µM
  MIC in the presence of cations P. aeruginosa ATCC: 3.7 (3.7)^3.7 µM
[13]
  MBC P. aeruginosa: 7.4 µM (≈ 31.9 µg/mL)
[13]; read-out: MIC P. aeruginosa
  MIC: 3.7 µM (≈ 16 µg/mL)
[13]; read-out: MIC in the presence of cations P. aeruginosa
  MIC: 3.7 µM
[14]
  MBC S. aureus: 7.4 (7.4)^7.4 µM
  MIC S. aureus: 7.4 (7.4)^7.4 µM
  MIC in the presence of cations S. aureus: 7.4 (7.4)^7.4 µM

## CC[C@H](C)[C@H](NC(=O)[C@H](CCCNC(=N)N)NC(=O)[C@@H](NC(=O)[C@H](CCCNC(=N)N)NC(=O)[C@@H](N)CCCCN)[C@@H](C)CC)C(=O)N[C@@H](CC(C)C)C(=O)NCC(=O)N[C@@H](CCCNC(=N)N)C(=O)N[C@@H](CC(C)C)C(=O)N[C@@H](Cc1c[nH]c2ccccc12)C(=O)N[C@@H](CC(=O)O)C(=O)NCC(=O)N[C@@H](CC(C)C)C(=O)N[C@@H](CCCNC(=N)N)C(=O)N[C@@H](CC(N)=O)C(=O)N[C@@H](CC(C)C)C(=O)NCC(=O)N[C@@H](CC(N)=O)C(=O)N[C@@H](CCCNC(=N)N)C(=O)N[C@H](C(=O)N[C@@H](CCCNC(=N)N)C(=O)N[C@@H](CC(N)=O)C(=O)N[C@@H](CCCNC(=N)N)C(=O)N[C@H](C(=O)N[C@@H](CCCNC(=N)N)C(=O)N[C@@H](CC(=O)O)C(=O)N[C@@H](Cc1ccccc1)C(=O)N[C@@H](Cc1ccccc1)C(=O)N[C@@H](CO)C(=O)O)[C@@H](C)CC)[C@@H](C)CC [MyfaCath5] (H-KRIRILGRLWDGLRNLGNRIRNRIRDFFS-OH)
[1]
  MBC MRSA: 8.8 µM (≈ 31.8 µg/mL)
  MIC MRSA: 8.8 µM (≈ 31.8 µg/mL)
[2]
  MBC PRSA: 2.2 µM (≈ 7.95 µg/mL)
  MIC PRSA: 2.2 µM (≈ 7.95 µg/mL)
[3]
  MFC C. parapsilosis ATCC: 17.7 µM (≈ 63.9 µg/mL)
  MIC C. parapsilosis ATCC: 17.7 µM (≈ 63.9 µg/mL)
[4]; read-out: MIC S. agalactiae ATCC
  MIC: >17.7 µM
[5]
  MFC C. krusei ATCC: 4.4 µM
  MIC C. krusei ATCC: 4.4 µM (≈ 15.9 µg/mL)
[6]; read-out: MIC S. pneumoniae ATCC
  MIC: >17.7 µM
[7]; read-out: MIC C. albicans
  MIC: >17.7 µM
[8]; read-out: MIC S. agalactiae
  MIC: >17.7 µM
[9]
  MBC E. coli ATCC: 17.7 µM (≈ 63.9 µg/mL)
[9]; read-out: MIC E. coli ATCC
  MIC: 8.8 µM (≈ 31.8 µg/mL)
[9]; [15]
  MIC: 8.8 µM
[10]
  MBC E. coli: 8.8 (8.8)^8.8 µM
  MIC E. coli: 8.8 (8.8)^8.8 µM
  MIC in the presence of cations E. coli: 8.8 (8.8)^8.8 µM
[11]
  MBC S. aureus ATCC: 17.7 µM (≈ 63.9 µg/mL)
[11]; read-out: MIC S. aureus ATCC
  MIC: 8.8 µM (≈ 31.8 µg/mL)
[11]; read-out: MIC in the presence of cations S. aureus ATCC
  MIC: 4.4 µM
[12]; read-out: MIC P. aeruginosa ATCC
  MIC: >17.7 µM
[13]; read-out: MIC P. aeruginosa
  MIC: >17.7 µM
[14]
  MBC S. aureus: 8.8 µM (≈ 31.8 µg/mL)
[14]; read-out: MIC S. aureus
  MIC: 4.4 µM (≈ 15.9 µg/mL)
[14]; read-out: MIC in the presence of cations S. aureus
  MIC: 4.4 µM
